Test results from US20090075888A1, “Cardiovascular and Brain Cell Therapy Using Intracellular Ryanodine Receptor Modulation by the Estrogen Receptor Beta” (University of North Texas Health Science Center at Fort …, priority 2007, published 2009).

Biological target: mouse brain RyR2 (Mus musculus, UniProt E9Q401)
Assay: Single-channel current recordings of RyR2 incorporated in artificial lipid bilayer

Sequence of mouse brain RyR2 (E9Q401 whole entry): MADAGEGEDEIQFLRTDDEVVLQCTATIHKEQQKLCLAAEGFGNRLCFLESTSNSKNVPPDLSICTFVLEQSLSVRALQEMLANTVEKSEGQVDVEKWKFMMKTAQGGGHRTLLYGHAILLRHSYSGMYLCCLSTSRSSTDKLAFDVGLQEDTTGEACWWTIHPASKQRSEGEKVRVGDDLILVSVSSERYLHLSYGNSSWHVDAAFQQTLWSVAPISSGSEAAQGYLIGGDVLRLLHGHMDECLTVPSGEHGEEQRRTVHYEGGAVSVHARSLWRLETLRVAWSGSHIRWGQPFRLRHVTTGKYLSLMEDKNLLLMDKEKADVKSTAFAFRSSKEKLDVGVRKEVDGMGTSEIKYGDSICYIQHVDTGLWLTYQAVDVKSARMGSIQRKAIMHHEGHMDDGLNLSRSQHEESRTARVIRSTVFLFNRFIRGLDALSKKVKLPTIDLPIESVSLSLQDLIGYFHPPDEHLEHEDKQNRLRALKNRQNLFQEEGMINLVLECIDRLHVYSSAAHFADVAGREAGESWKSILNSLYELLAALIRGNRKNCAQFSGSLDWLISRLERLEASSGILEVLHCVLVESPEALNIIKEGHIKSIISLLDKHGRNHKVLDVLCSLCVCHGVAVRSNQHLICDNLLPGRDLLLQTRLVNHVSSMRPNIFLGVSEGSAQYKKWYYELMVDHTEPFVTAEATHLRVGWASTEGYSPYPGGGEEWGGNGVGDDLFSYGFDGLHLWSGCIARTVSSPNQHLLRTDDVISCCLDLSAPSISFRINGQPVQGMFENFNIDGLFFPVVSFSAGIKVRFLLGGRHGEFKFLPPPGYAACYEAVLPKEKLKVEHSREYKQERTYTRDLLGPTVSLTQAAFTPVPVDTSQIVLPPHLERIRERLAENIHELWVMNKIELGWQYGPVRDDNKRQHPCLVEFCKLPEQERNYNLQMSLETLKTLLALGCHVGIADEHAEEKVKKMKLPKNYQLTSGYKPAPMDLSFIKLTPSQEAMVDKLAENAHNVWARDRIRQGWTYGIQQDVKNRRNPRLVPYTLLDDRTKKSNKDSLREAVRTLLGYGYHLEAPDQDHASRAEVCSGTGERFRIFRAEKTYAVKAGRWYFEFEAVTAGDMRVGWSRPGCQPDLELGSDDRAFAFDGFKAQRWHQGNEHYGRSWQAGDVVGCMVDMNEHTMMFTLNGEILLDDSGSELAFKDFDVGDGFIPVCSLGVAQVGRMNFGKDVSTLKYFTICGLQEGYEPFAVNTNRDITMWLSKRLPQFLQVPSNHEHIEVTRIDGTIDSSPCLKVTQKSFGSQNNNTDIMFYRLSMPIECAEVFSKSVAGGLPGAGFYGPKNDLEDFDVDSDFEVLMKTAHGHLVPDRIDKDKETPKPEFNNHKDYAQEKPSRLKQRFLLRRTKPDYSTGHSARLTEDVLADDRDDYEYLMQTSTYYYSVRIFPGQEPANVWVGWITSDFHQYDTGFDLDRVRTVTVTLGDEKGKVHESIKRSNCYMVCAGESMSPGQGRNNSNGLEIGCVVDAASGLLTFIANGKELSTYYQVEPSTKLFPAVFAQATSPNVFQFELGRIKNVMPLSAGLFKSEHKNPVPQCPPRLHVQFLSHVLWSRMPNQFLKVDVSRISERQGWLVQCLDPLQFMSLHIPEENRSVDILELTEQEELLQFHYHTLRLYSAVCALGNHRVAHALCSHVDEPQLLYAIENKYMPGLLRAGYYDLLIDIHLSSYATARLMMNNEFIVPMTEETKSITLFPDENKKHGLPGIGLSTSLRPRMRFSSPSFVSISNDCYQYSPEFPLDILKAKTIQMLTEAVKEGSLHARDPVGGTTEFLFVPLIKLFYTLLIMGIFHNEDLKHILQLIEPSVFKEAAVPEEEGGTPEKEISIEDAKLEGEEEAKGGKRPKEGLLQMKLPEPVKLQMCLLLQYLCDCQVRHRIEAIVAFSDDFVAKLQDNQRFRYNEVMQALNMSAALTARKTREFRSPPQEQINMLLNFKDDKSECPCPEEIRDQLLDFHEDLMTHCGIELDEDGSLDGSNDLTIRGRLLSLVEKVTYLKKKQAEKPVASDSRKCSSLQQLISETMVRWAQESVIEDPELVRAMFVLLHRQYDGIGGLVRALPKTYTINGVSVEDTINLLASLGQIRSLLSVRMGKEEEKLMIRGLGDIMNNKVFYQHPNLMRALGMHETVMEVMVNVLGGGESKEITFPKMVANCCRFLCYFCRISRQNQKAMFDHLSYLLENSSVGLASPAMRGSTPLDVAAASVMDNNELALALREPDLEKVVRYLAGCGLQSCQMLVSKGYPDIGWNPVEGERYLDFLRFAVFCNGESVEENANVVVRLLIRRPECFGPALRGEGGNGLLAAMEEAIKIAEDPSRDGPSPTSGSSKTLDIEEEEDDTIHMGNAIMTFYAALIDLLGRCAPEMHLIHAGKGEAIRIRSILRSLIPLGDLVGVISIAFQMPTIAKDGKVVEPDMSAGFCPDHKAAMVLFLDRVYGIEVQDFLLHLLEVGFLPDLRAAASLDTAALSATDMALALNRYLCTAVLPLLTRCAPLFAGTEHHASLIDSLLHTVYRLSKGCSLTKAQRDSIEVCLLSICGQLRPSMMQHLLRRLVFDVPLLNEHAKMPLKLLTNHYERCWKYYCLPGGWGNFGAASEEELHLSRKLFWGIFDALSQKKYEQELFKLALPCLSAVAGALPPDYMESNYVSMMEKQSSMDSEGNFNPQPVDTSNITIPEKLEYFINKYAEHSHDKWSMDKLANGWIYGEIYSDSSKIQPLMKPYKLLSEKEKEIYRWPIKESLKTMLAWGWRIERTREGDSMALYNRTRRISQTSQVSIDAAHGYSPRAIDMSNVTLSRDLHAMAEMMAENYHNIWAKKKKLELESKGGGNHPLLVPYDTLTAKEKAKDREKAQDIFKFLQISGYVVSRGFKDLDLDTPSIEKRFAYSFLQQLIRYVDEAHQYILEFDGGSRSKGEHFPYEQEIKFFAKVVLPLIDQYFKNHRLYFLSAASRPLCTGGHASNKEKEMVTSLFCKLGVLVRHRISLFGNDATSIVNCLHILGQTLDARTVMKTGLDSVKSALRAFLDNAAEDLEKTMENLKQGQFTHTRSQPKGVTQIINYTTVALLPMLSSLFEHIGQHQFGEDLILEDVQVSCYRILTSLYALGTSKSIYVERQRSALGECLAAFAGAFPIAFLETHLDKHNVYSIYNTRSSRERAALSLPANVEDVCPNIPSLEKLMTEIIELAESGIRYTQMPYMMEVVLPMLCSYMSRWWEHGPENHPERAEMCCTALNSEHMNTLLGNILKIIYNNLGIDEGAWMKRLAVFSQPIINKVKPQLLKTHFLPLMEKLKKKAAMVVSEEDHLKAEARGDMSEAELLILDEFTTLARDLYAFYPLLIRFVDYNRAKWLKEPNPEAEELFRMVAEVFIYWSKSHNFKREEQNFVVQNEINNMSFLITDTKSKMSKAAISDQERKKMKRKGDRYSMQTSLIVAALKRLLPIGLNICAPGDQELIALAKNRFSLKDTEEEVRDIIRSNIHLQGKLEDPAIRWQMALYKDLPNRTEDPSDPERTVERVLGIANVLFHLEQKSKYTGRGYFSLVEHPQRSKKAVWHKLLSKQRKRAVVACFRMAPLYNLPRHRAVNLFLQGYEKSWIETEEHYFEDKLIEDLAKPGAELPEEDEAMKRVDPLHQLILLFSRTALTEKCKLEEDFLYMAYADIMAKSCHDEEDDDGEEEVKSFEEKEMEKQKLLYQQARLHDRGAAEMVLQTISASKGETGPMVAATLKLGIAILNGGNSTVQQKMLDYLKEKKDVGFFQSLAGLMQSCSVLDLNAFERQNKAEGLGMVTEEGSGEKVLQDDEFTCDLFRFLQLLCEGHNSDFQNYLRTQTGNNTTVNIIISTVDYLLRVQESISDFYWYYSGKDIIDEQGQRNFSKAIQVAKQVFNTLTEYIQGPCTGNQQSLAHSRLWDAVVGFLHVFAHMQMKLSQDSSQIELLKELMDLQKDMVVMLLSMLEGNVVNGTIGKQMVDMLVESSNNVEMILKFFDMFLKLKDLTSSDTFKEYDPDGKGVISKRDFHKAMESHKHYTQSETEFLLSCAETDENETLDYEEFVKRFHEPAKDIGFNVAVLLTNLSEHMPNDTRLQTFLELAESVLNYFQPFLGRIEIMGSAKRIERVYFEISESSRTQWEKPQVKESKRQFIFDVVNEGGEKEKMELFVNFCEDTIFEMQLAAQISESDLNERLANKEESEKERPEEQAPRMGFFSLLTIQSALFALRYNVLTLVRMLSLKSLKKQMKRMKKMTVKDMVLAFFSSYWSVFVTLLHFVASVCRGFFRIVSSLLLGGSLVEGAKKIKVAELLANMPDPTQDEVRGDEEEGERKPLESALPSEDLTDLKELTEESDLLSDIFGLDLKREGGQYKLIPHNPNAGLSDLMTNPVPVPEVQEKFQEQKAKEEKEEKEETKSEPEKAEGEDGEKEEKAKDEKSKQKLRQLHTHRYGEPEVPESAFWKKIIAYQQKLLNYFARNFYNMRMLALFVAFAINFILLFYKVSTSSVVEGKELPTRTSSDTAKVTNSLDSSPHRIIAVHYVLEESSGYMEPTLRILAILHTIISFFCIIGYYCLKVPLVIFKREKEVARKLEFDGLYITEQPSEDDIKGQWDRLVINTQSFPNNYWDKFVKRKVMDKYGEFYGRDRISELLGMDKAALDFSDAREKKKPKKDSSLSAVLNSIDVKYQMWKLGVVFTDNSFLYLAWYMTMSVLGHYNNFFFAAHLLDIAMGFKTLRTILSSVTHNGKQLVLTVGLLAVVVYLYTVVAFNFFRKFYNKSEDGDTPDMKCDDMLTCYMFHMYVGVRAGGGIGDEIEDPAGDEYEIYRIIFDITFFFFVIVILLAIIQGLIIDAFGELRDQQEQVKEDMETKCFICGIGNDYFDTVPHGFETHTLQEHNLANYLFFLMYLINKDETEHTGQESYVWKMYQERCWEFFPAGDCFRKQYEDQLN

N.N.N.N.N.N.N.N.N.N.N.N.N.N.[Cl-].[Cl-].[Cl-].[Cl-].[Cl-].[Cl-].[O-2].[O-2].[Ru+3].[Ru+3].[Ru+4] [Ruthenium Red]
block of ERβ-activated RyR2 single channel currents (20 μM Ruthenium Red after ERβ (FIG. 1A)): blocked | RyR channel block (25 μM ruthenium red after ERβ (FIG. 10A, 11A)): complete channel block
